Reference: publication PMC9820646, “Identification and Pharmacological Characterization of Two Serotonin Type 7 Receptor Isoforms from Mythimna separata” (International Journal of Molecular Sciences, 2022)
Counter-ions that a name gives are not always drawn. Like-named read-outs stand apart in the source and are kept apart here.

Tests used:
Msep5-HT7S receptor [1] = molecular target: T1, Msep5-HT7S receptor (Mythimna separata, UniProt A0AAD7YHG5, DEL320-414); test: cell-based; assay type: cell-based; parameters: Emax: dose or concentration left out as unconfirmed; details: for Emax: HEK293, read-out: activation compared with maximum cAMP stimulation by 5-HT; for fold higher agonist potency against Msep5-HT7S than Msep5-HT7L: ratio of EC50 values
Procedure: (§1) HEK-293 cells were cultured in D-MEM (Gibco BRL, Gaithersburg, MD, USA) supplemented with 10% FBS (Gibco BRL, Gaithersburg, MD, USA) at 37 °C and 5% CO2. Four microgram recombinant plasmids with 10 μL of lipofectamine 2000 (Invitrogen, Carlsbad, CA, USA) were introduced into exponentially growing HEK 293 cells. The 0.8 mg/mL antibiotic G418 (Sigma, St. Louis, MO, USA) was added to the medium to select for cells that were stably expressed the Msep5-HT7 receptors. After fourteen days of G418 selection, three G418-resistant colonies were trypsinized in cloning cylinders and transferred to 12-well plastic plates for expansion.
(§2) Intracellular cAMP concentrations were measured as previously described. Briefly, when cells were cultured for 2 days to the concentration of 1 × 10^6 cells/mL, culture media were removed and the cells were washed two times with cold PBS (pH 7.4), then the cells were preincubated in 450 μL of Dulbecco’s phosphate-buffered solution (DPBS) containing 100 μM phosphodiesterase inhibitor 3-isobutyl-1-methylxanthine (IBMX) for 20 min at room temperature. After the preincubation, 50 μL of DPBS, containing various concentrations of reagents, was added into the stable transfected cells for incubation for 30 min at 37 °C. The cells were washed three times with cold PBS (pH 7.4) and then lysed in 250 μL of cold cell lysis buffer by re-freezing. The cell debris was removed by centrifugation at 600× g for 10 min at 4 °C. The amount of intracellular cAMP extracted from harvested supernatant was determined using an ELISA reagent (R&D Systems, Minneapolis, MN, USA). Each measurement was performed in duplicate, and three independent assays were carried out for each reagent and concentration tested.

Msep5-HT7L receptor [2] = molecular target: T2, Msep5-HT7L receptor (Mythimna separata, UniProt A0AAD7YHG5); test: cAMP assay, agonist activation of Msep5-HT7L in stably transfected HEK293 cells; assay type: cell-based; parameters: Emax: dose or concentration left out as unconfirmed; details: for effect on intracellular cAMP levels: 10 μM, HEK293 cells expressing Msep5-HT7L; for Emax: HEK293, read-out: activation compared with maximum cAMP stimulation by same concentration of 5-HT
Procedure: as §1, §2

Msep5-HT7L receptor [3] = test: as above; assay type: cell-based, Mythimna separata; parameters: Emax: dose or concentration left out as unconfirmed; details: ratio of EC50 values
Procedure: as §1, §2

5-HT7 receptor [4] = details: 5-HT7 receptor from T. castaneum; ref [36]; cited from earlier work
5-HT7 receptor [5] = details: 5-HT7 receptor from T. castaneum vs the two Msep5-HT7 isoforms
Msep5-HT7S receptor [6] = molecular target: T1, Msep5-HT7S receptor; test: cAMP assay, antagonist block of 5-HT-induced response in HEK293 cells expressing Msep5-HT7S; assay type: cell-based; details: for inhibition at 40 µM: HEK293, read-out: decrease of 5-HT induced response
Procedure: as §1, §2

5-HT7 receptor [7] = details: 5-HT7 receptor from C. vicina; ref [28],[36],[46]; cited from earlier work
Msep5-HT7L receptor [8] = molecular target: T2, Msep5-HT7L receptor; test: cAMP assay, antagonist block of 5-HT-induced response in HEK293 cells expressing Msep5-HT7L; assay type: cell-based; details: against 5 μM 5-HT
Procedure: as §1, §2

Msep5-HT7L receptor [9] = test: as above; assay type: cell-based; details: for decrease of 5-HT induced response: 40 μM antagonist (8-fold) with 5 μM 5-HT, range stated for all antagonists and both isoforms; for antagonist potency or efficacy, Msep5-HT7L compared with Msep5-HT7S: inhibition of 5-HT-induced cAMP production, based on 95% fiducial limits
Procedure: as §1, §2

5-HT7 receptor [10] = test: literature pharmacology of C. vicina 5-HT7 receptor; details: 5-HT7 receptor from C. vicina vs the two Msep5-HT7 isoforms
[11] = test system: larvae of Mythimna separata; parameters: method as in PMID 20000410; details: ref [22]; cited from earlier work
5-HT7 receptor [12] = details: 5-HT7 receptor from A. mellifera; ref [17],[27]; cited from earlier work
5-HT1 receptor = molecular target: 5-HT1 receptor; parameters: method as in PMID 23741451, PMID 16945110; details: 5-HT1 receptor from T. castaneum; ref [17],[27]; cited from earlier work
[13] = 10 μM, HEK293 cells expressing Msep5-HT7S
[14] = EC50, 5-HT7S, cAMP production, HEK-293 cells
[15] = logEC50 (Mean ± SEM), 5-HT7S, cAMP production, HEK-293 cells, given as negative log value
[16] = EC50, 5-HT7L, cAMP production, HEK-293 cells
[17] = logEC50 (Mean ± SEM), 5-HT7L, cAMP production, HEK-293 cells, given as negative log value
[18] = IC50, 5-HT7S, against 5 μM 5-HT, HEK-293 cells
[19] = logIC50 (Mean ± SEM), 5-HT7S, against 5 μM 5-HT, given as negative log value
[20] = logIC50 (Mean ± SEM), 5-HT7L, given as negative log value

T2 sequence (A0AAD7YHG5 entry or part of it): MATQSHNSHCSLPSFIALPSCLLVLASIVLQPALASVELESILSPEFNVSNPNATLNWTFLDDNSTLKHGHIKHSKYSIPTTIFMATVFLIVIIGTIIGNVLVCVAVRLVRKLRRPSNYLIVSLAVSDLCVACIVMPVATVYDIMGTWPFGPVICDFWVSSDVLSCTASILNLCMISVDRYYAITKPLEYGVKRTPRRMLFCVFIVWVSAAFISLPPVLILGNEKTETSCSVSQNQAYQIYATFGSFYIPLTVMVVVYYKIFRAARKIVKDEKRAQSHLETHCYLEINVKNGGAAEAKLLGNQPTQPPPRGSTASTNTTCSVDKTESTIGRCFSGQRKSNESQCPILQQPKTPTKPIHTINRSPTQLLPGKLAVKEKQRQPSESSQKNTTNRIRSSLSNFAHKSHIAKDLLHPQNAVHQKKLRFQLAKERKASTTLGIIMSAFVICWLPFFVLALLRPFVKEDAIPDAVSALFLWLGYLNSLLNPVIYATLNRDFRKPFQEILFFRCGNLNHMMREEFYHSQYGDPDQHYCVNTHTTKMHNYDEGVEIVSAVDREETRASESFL
T1 sequence (A0AAD7YHG5 entry or part of it DEL320-414): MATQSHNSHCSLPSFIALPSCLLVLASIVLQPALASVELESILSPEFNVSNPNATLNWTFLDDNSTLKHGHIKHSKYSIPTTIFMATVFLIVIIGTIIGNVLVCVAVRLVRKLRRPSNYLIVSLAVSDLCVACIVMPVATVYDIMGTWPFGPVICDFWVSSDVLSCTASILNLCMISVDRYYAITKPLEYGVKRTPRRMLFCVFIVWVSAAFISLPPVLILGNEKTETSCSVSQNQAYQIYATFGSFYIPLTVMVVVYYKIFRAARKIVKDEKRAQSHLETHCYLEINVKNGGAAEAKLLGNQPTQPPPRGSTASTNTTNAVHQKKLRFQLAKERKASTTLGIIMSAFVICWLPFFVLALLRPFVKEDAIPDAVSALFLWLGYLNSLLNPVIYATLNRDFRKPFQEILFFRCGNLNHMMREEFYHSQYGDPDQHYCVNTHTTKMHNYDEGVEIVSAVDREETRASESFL

Row | SMILES | effect on intracellular cAMP levels (Msep5-HT7S receptor [1]; [13]) | effect on intracellular cAMP levels (Msep5-HT7L receptor [2]) | inhibition at 40 µM (Msep5-HT7S receptor [6]) | IC50 (Msep5-HT7S receptor [6]; [18]) | IC50 (Msep5-HT7S receptor [6]; [19]) | IC50 (Msep5-HT7L receptor [8]; IC50, 5-HT7L, HEK-293 cells) | IC50 (Msep5-HT7L receptor [8]; [20]) | decrease of 5-HT induced response (Msep5-HT7L receptor [9]) | antagonist potency or efficacy, Msep5-HT7L compared with Msep5-HT7S (Msep5-HT7L receptor [9]) | also measured
1 | CCCN(CCC)C1CCc2cccc(O)c2C1 (racemic) [8-OH-DPAT, (±)-8-hydroxy-2-(dipropylamino) tetralin hydrobromide] | only αm-5-HT significantly increased cAMP levels | activated |  |  |  |  |  |  |  | EC50 (Msep5-HT7S receptor [1]; [14]): 24.8 µM; Emax (Msep5-HT7S receptor [1]): < 30%; EC50 (Msep5-HT7S receptor [1]; [15]): 24.5 µM; EC50 (Msep5-HT7L receptor [2]; [16]): 10.1 µM; Emax (Msep5-HT7L receptor [2]): < 30%; EC50 (Msep5-HT7L receptor [2]; [17]): 10 µM; fold higher agonist potency against Msep5-HT7L than Msep5-HT7S (Msep5-HT7L receptor [3]): 2.4 fold; efficacy fold lower than 5-HT (5-HT7 receptor [4]): about 2 fold; potency fold lower than 5-HT (5-HT7 receptor [4]): more than 190 fold
2 | NCC(O)c1ccc(O)cc1 (racemic) [octopamine, (±)-octopamine hydrochloride] | only 5-HT significantly increased cAMP levels | only 5-HT significantly increased cAMP levels |  |  |  |  |  |  |  | 
3 | NCCc1c[nH]c2ccc(O)cc12 [5-HT, serotonin hydrochloride] | significantly increased cAMP levels | significantly increased cAMP levels |  |  |  |  |  |  |  | 
4 | COc1ccc2[nH]cc(CCN)c2c1 [5-MT, 5-methoxytryptamine] | only αm-5-HT significantly increased cAMP levels | activated |  |  |  |  |  |  |  | EC50 (Msep5-HT7S receptor [1]; [14]): 19.4 µM; Emax (Msep5-HT7S receptor [1]): ~35%; EC50 (Msep5-HT7S receptor [1]; [15]): 19.5 µM; fold higher agonist potency against Msep5-HT7S than Msep5-HT7L (Msep5-HT7S receptor [1]): roughly equivalent; EC50 (Msep5-HT7L receptor [2]; [16]): 20.9 µM; Emax (Msep5-HT7L receptor [2]): ~69%; EC50 (Msep5-HT7L receptor [2]; [17]): 20.9 µM; efficacy fold lower than 5-HT (5-HT7 receptor [4]): about 2 fold; potency fold lower than 5-HT (5-HT7 receptor [4]): more than 190 fold
5 | O=C(c1ccc(F)cc1)C1CCN(CCn2c(=O)[nH]c3ccccc3c2=O)CC1 [Ketanserin] |  |  | 33 to 60% | 84.9 µM | 85.1 µM | 46.9 µM | 46.8 µM | 33–60% | higher antagonistic activity | fold higher inhibitory potency than against Msep5-HT7L and Msep5-HT7S (5-HT7 receptor [5]): 20- to 50 fold; IC50 (5-HT7 receptor [7]): 1.5 µM; fold higher inhibitory potency than against Msep5-HT7L and Msep5-HT7S (5-HT7 receptor [10]): 20- to 50 fold; IC50 (5-HT7 receptor [4]): 1.95 µM
6 | CSc1ccc2c(c1)C(N1CCN(C)CC1)Cc1ccccc1S2 (centres unmarked) [Methiothepin, methiothepin mesylate] |  |  | 33 to 60% | 62.9 µM | 63.1 µM | 87.2 µM | 87.1 µM | 33–60% | no significant differences | 
7 | Nc1ccc(CCN2CCN(c3cccc(C(F)(F)F)c3)CC2)cc1 [PAPP, 1-[(4-aminophenyl)ethyl]-4-[3-(trifluoromethyl)phenyl] piperazine] |  |  |  |  |  |  |  |  |  | effect on larvae [11]: inhibit the growth or kill the larvae
8 | Cc1cccc(S(=O)(=O)N(C)[C@H](C)CCN2CCC(C)CC2)c1 [SB-258719] |  |  | 33 to 60% | 64 µM | 64.6 µM | 55.3 µM | 55 µM | 33–60% | no significant differences | 
9 | CC1CCN(CC[C@H]2CCCN2S(=O)(=O)c2cccc(O)c2)CC1 [SB-269970, (R)-3-(2-(2-(4-methylpiperidin-1-yl)ethyl)pyrrolidine-1-sulfonyl) phenol] |  |  | 33 to 60% | 67.8 µM | 67.6 µM | 70.4 µM | 70.8 µM | 33–60% | no significant differences | antagonistic effect (5-HT7 receptor [12]): poor antagonistic effect; IC50 (5-HT1 receptor): 205 µM
10 | COc1ccccc1N1CCN(CCN(C(=O)C2CCCCC2)c2ccccn2)CC1 [WAY-100635] |  |  |  |  |  |  |  | 33–60% | higher antagonistic activity | IC50 (Msep5-HT7S receptor [6]; 5-HT7S, against 5 μM 5-HT, HEK-293 cells, read-out: IC50): 70.3 µM; logIC50 (Mean ± SEM) (Msep5-HT7S receptor [6]; 5-HT7S, against 5 μM 5-HT, given as negative log value): −4.15 ± 0.02; IC50 (Msep5-HT7L receptor [8]; 5-HT7L, HEK-293 cells, read-out: IC50): 36.1 µM; logIC50 (Mean ± SEM) (Msep5-HT7L receptor [8]; 5-HT7L, given as negative log value): −4.44 ± 0.04; IC50 (5-HT7 receptor [4]): 76.8 µM
11 | NCCc1ccc(O)c(O)c1 [dopamine, dopamine hydrochloride] |  | only 5-HT significantly increased cAMP levels |  |  |  |  |  |  |  | effect on intracellular cAMP levels (Msep5-HT7S receptor [1]): only 5-HT significantly increased cAMP levels
12 | NCCc1ccc(O)cc1 [tyramine, tyramine hydrochloride] | only 5-HT significantly increased cAMP levels | only 5-HT significantly increased cAMP levels |  |  |  |  |  |  |  | 
13 | CC(N)Cc1c[nH]c2ccc(O)cc12.O=C(O)/C=C\C(=O)O (stereo not drawn) [αm-5-HT, α-methylserotonin maleate] | significantly increased cAMP levels | activated |  |  |  |  |  |  |  | activation compared with maximum cAMP stimulation by 5-HT (Msep5-HT7S receptor [1]): about 35%; logEC50 (Mean ± SEM) (Msep5-HT7S receptor [1]; 5-HT7S, cAMP production, HEK-293 cells, given as negative log value): −5.23 ± 0.29; EC50 (Msep5-HT7S receptor [1]; 5-HT7S, cAMP production, HEK-293 cells, read-out: EC50): 5.9 µM; fold higher agonist potency against Msep5-HT7S than Msep5-HT7L (Msep5-HT7S receptor [1]): 2.3 fold; logEC50 (Mean ± SEM) (Msep5-HT7L receptor [2]; 5-HT7L, cAMP production, HEK-293 cells, given as negative log value): −4.86 ± 0.04; EC50 (Msep5-HT7L receptor [2]; 5-HT7L, cAMP production, HEK-293 cells, read-out: EC50): 13.9 µM; activation compared with maximum cAMP stimulation by same concentration of 5-HT (Msep5-HT7L receptor [2]; highest concentration 1 mM, Msep5-HT7L): about 69%; efficacy fold lower than 5-HT (5-HT7 receptor [4]): about 2 fold; potency fold lower than 5-HT (5-HT7 receptor [4]): more than 190 fold
